Data taken from patent US10420341B2, “Herbicidal phenylpyrimidines” (BASF SE, priority 2015, dated 2019).

How the values were obtained:
APESV = assay: greenhouse pre-emergence herbicidal test; type: in vivo, Apera spica-venti; details: pre-emergence method, application rate 500 g/ha, scale from 0 to 100
In short: (§1)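 Greenhouse plants receive the aqueous active ingredient straight after sowing, before emergence. Response is scored from 0 (no damage) to 100 (no emergence or complete kill of aerial parts) over a 2-4 week period.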

ECHCG [1] = assay: greenhouse post-emergence herbicidal test; type: in vivo, Echinocloa crus-galli; details: post-emergence method, application rate 500 g/ha, scale from 0 to 100
In short: (§2)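 Scoring 0 (no damage) to 100 (no emergence or total destruction of aerial parts), taken over a 2 to 4 week period after post-emergence treatment at 3 to 15 cm plant height. Compounds applied as aqueous suspension or emulsion; greenhouse temperature 10-25° C. or 20-35° C. depending on species.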

AVEFA = assay: greenhouse post-emergence herbicidal test; type: in vivo, Avena fatua; details: post-emergence method, application rate 500 g/ha, scale from 0 to 100
In short: as §2

ECHCG [2] = assay: greenhouse pre-emergence herbicidal test; type: in vivo, Echinocloa crus-galli; details: pre-emergence method, application rate 500 g/ha, scale from 0 to 100
In short: as §1

ALOMY = assay: greenhouse post-emergence herbicidal test; type: in vivo, Alopercurus myosuroides; details: post-emergence method, application rate 500 g/ha, scale from 0 to 100
In short: as §2

POLCO = assay: greenhouse pre-emergence herbicidal test; type: in vivo, Polygonum convolvulus; details: pre-emergence method, application rate 500 g/ha, scale from 0 to 100
Excerpt: The seeds of the test plants were sown separately for each species. For the pre-emergence treatment, the active ingredients, which had been suspended or emulsified in water, were applied directly after sowing by means of finely distributing nozzles. The containers were irrigated gently to promote germination and growth and subsequently covered with transparent plastic hoods until the plants had rooted. This cover caused uniform germination of the test plants, unless this had been impaired by the active ingredients. Depending on the species, the plants were kept at 10-25° C. or 20-35° C., respectively. The test period extended over 2 to 4 weeks. During this time, the plants were tended, and their response to the individual treatments was evaluated. Evaluation was carried out using a scale from 0 to 100. 100 means no emergence of the plants, or complete destruction of at least the aerial moieties, and 0 means no damage, or normal course of growth. […] The plants used in the greenhouse experiments were of the following species: [table]

Compound: O=C(OCC(F)F)c1nc(C2CC2)ncc1-c1ccccc1Cl [example 257]
- herbicidal activity against APESV (APESV): very good (a very good herbicidal activity is given at values of at least 85)
- herbicidal activity against ECHCG (ECHCG [1]): good (A good herbicidal activity is given at values of at least 70)
- herbicidal activity against AVEFA (AVEFA): very good (a very good herbicidal activity is given at values of at least 85)
- herbicidal activity against ECHCG (ECHCG [2]): very good (a very good herbicidal activity is given at values of at least 85)
- herbicidal activity against ALOMY (ALOMY): very good (a very good herbicidal activity is given at values of at least 85)
- herbicidal activity against POLCO (POLCO): very good (a very good herbicidal activity is given at values of at least 85)
